The values below come from the METLIN SMRT retention time set (Domingo-Almenara et al. 2019).

Molecules are shown by their SMILES.

The data set can be described thus: gradient 5% acetonitrile 3 min, to 50% in 2 min, to 85% in 15 min, held 3 min, 100 µL/min. To be noted: column: Zorbax Extend-C18 2.1 x 50 mm; eluents: water / acetonitrile, 0.1% formic acid. The procedure, abridged: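 Pure standards were run in mixtures of ~100 molecules by HPLC coupled to a quadrupole time-of-flight mass spectrometer. The column was a Zorbax Extend-C18 (2.1 × 50 mm, 1.8 μm) at 100 μL/min, with water and acetonitrile each containing 0.1% formic acid, in positive and negative ionization mode. Dead and dwell volumes were 40 μL and 900 μL. Retention time was taken from computationally picked adduct peaks, each manually inspected, with data collected over 3 months.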
Regarding `O=C(c1ccnnc1)N1CC(F)(F)C[C@H]1c1nnc(-c2ccccc2)o1`, the RP-LC retention time is 696 s.
Next, `O=C(NCCCN1CCCCC1)c1ccc2c(c1)nc1n2CCN(C2CCCCC2)C1=O`: 621 s; `Cn1nnc2c(Nc3ccc(Br)cc3F)ncnc21`: 761 s.
In turn, `CCOc1ccc(NC(=O)N2CCC(n3cnc4cccnc43)CC2)cc1` displayed an RP-LC retention time of 642 s.
The value for `CC(C)CCC(=O)N1CCN(c2nc(CN3CCOCC3)cs2)CC1` was 624 s; that for `Cc1cccc(NS(=O)(=O)c2ccc3c(c2)C(=O)N(C)c2ncccc2O3)c1C` was 970 s; that for `CCN1C(=O)COc2ccc(-c3noc(-c4ccc5cc[nH]c5c4)n3)cc21` was 1040 s.
`CC(=O)Nc1ccc2nc(NC(=O)CCOc3ccccc3)sc2c1` gave an RP-LC retention time of 708 s.
Next, `COc1ccc(-n2cc(C(=O)Nc3ccc(OC)cc3OC)nn2)cc1`: 1000 s; `O=C(c1ccc(-c2cccs2)nc1)N1CCN(c2ccccc2)CC1`: 935 s; `O=C(C1CCc2nc(N3CCCC3)ncc2C1)N1CCN(Cc2ccc3c(c2)OCO3)CC1` (stereo not given): 566 s.
With `Cc1ccc(-c2noc(CSc3nc4cc5c(cc4c(=O)n3CC3CCCO3)OCO5)n2)cc1` (stereo not given), the RP-LC retention time amounted to 1160 s.
`CCN(CC)CCNC(=O)C1(O)c2ccccc2NC(=O)N1c1ccc(C)c(C)c1` (stereo not given) registered an RP-LC retention time of 571 s.
Next, `CCOc1ccc(CC(=O)NC(C)C(=O)Nc2nc3ccccc3[nH]2)cc1OCC` (stereo not given): 668 s.
`N#Cc1ccccc1-c1cc(-c2ccccn2)cn(-c2ccccc2)c1=O` yielded an RP-LC retention time of 941 s.
`Cc1nc(C2(C)CCN(S(=O)(=O)c3ccccc3C(F)(F)F)CC2)no1` yielded an RP-LC retention time of 963 s.
As for `CCc1noc(NC(C)=O)c1-c1ccc(C)c(S(=O)(=O)NC2CCCC2)c1`, the RP-LC retention time is 808 s.
Next, `CCOC(=O)c1noc2ncnc(N(CCN(C)C)Cc3ccccc3)c12`: 656 s; `CCOC(=O)c1nc(Nc2cccc(C)c2)c2ccccc2n1`: 890 s.
For `O=C(NCCCN1CCCCC1)c1csc(-c2ccc(N3CCCC3)nc2)n1`, the RP-LC retention time came out at 562 s.
As to `O=C(NCc1ccco1)C1CCCN(C(=O)NC2CC2)C1` (stereo not given), the RP-LC retention time is 604 s.
For `O=S(=O)(c1ccccc1F)N1CCC(c2noc(-c3ccccc3)n2)CC1`, the RP-LC retention time stood at 1020 s.
For `COc1cccc(-n2nnc(-c3nc(-c4ccccc4OC)cs3)c2N)c1`, the RP-LC retention time turned out to be 1120 s.
In the case of `CCCCOc1ccc(-c2cc3c4nnc(CCC(=O)N5CCN(C(C)C)CC5)n4ccn3n2)cc1`, the RP-LC retention time came to 692 s.
For the compound `CC(C)C(=O)Nc1ccc2nc(N3CCN(Cc4ccccc4F)CC3)cc(C(=O)O)c2c1`, the RP-LC retention time was determined as 585 s.
In turn, `CCOc1ccccc1NC(=O)Cn1c(=O)n(-c2cccc(C)c2)c(=O)c2c1cc(C)n2C` showed an RP-LC retention time of 943 s.
Compound `COc1ccc(-c2c(C)nn3c(C)c(C(=O)OC(C)C)nnc23)cc1` showed an RP-LC retention time of 1010 s.
The compound `CNC(=O)C1CCCN(c2nc3ncn(CC(=O)Nc4ccc(C(=O)OC)cc4)c(=O)c3s2)C1` (stereo not given) came in with an RP-LC retention time of 649 s.
In turn, `Cn1ccc2cc(S(=O)(=O)N3CCCC(C(=O)N4CCN(c5ccccn5)CC4)C3)ccc21` (stereo not given) gave an RP-LC retention time of 663 s.
Take `Cc1cccc(-c2nc3cnccn3c2NCCC(=O)NC2CCCC2)c1`: the RP-LC retention time is 670 s.
`COCCNC(=O)CC1CCN(C(=O)c2cc3cc(Cl)ccc3[nH]2)CC1` showed an RP-LC retention time of 701 s.
`CCOc1ccc(C(=O)Nc2nc3c(s2)CCc2ccccc2-3)cc1`: the RP-LC retention time was determined as 1200 s.
The value for `Cn1cc(CCNC(=O)Nc2ccccc2C(F)(F)F)c2cccnc21` was 779 s; that for `COCCCn1c(=O)c2ccccc2n(Cc2nc(-c3ccc(Cl)cc3)no2)c1=O` was 1070 s.
The value for `COCc1ncc(C)n1CC1CCN(Cc2sccc2C)CC1` was 534 s; that for `COc1ccc(NC(=O)C2CCCN(c3cnc4nc(C)c(C)nc4c3)C2)c(C)c1` (stereo not given) was 712 s; that for `CC1CCCN(S(=O)(=O)c2ccc(-c3nnc(C4CC4)o3)o2)C1` (stereo not given) was 940 s.
The value for `CCCNC(=O)C1CCCN(c2ccc(SCC(=O)NCc3ccccc3)nn2)C1` (stereo not given) was 648 s; that for `COc1ccc(NC(=O)c2cnc(N3CCN(c4ccc(OC)cc4)CC3)nc2N)cc1` was 731 s.
As to `Cc1c(-c2noc(-c3ccc(F)cc3)n2)nnn1Cc1ccccc1`, the RP-LC retention time stood at 1060 s.
Compound `O=C(c1cc(Cl)ccc1F)N1CCN(c2cc(-c3cccs3)[nH]n2)CC1` returned an RP-LC retention time of 833 s.
Regarding `O=S(=O)(c1ccccc1)N1CCc2nc(-c3ccccc3)ncc2C1`, the RP-LC retention time turned out to be 1010 s.
For the compound `COC(=O)C(NC(=O)Nc1cccn2c(C)nnc12)c1ccccc1` (stereo not given), the RP-LC retention time is 678 s.
`Cn1cc(-c2ccccc2)cc1C(=O)NCc1cccs1` gave an RP-LC retention time of 979 s.
In turn, `O=C(CCC1CCCN(C(=O)Nc2ccc(Cl)cc2)C1)NCc1ccccc1` (stereo not given) returned an RP-LC retention time of 884 s.
With `CCc1noc(NC(C)=O)c1-c1ccc(C)c(S(=O)(=O)Nc2ccc(C)c(C)c2)c1`, the RP-LC retention time was 897 s.
`COc1ccc(CC(=O)N2CCCC2c2nc(-c3ccccc3OC)no2)cc1` (stereo not given) returned an RP-LC retention time of 853 s.
Compound `O=C(NCCCc1ccccc1)c1nnc(-c2ccc(S(=O)(=O)N3CCOCC3)cc2)o1` gave an RP-LC retention time of 911 s.
With `O=C1CCN(C(=O)C2CCN(C(=O)CC3CCCC3)CC2)CCCCCCN1`, the RP-LC retention time turned out to be 686 s.
In turn, `O=C(c1ccc2nnc(-c3ccc(Cl)cc3)n2c1)N1CCN(c2ccccn2)CC1` had an RP-LC retention time of 650 s.
Consider `CC(C)c1ccc(CNC(=O)Cc2nnc(-c3ccccn3)o2)cc1`, for which the RP-LC retention time was determined as 578 s.
The value for `Cc1nn(C(C)C(=O)NCCCN2CCCCC2)c(=O)c2c1sc1ccccc12` (stereo not given) was 680 s; that for `COc1ccc(N2CCN(C(=O)CN3C(=O)NC4(CCCCC4)C3=O)CC2)cc1` was 694 s.
`CN1C(=O)[C@]2(CO)SSC1(Cc1cn([C@]34C[C@@]56SS[C@@](CO)(C(=O)N5[C@H]3Nc3ccccc34)N(C)C6=O)c3ccccc13)C(=O)N2C` yielded an RP-LC retention time of 898 s.
As to `COC(=O)c1cc2c(=O)n(Cc3ccc(OC)c(OC)c3)ccc2nc1C`, the RP-LC retention time turned out to be 760 s.
Next, `Cc1ccc(Cl)c(NC(=O)Cc2csc(C)n2)c1`: 687 s; `COC(=O)C1CCN(S(=O)(=O)c2cc3c4c(c2)CCC(=O)N4CCC3)CC1`: 724 s; `Cc1cc(S(=O)(=O)N2CCc3nc(-c4ccc(F)cc4)ncc3C2)ccc1F`: 1130 s.
The value for `CCSc1nnc(NC(=O)C2(c3cc(-c4cccs4)on3)CC2)s1` was 1020 s; that for `Cc1ccn2cc(C(=O)N3CCN(c4ccccc4Cl)CC3)nc2c1` was 722 s.
Consider `CN(Cc1ccccc1)C(=O)CN1c2ccc(F)cc2-c2ccccc2S1(=O)=O`, for which the RP-LC retention time was determined as 994 s.
Compound `O=C(NCc1ccccc1Cl)C1CCc2nc(N3CCOCC3)ncc2C1` (stereo not given) yielded an RP-LC retention time of 726 s.
Turning to `Cc1nc(-c2cc(S(=O)(=O)NCc3ccc(F)cc3F)c(C)s2)cs1`, the RP-LC retention time came out at 956 s.
In the case of `Cc1cc(C)cc(S(=O)(=O)N2CCC3(CC2)NCCN=C3NCc2cccc(F)c2)c1`, the RP-LC retention time stood at 772 s.
Next, `Cn1c(=O)c2cc(C(=O)Nc3cccc(Cl)c3)cnc2n(-c2ccccc2)c1=O`: 980 s; `CN(C)c1ncccc1C(=O)Nc1ccccc1Cl`: 716 s; `Cc1cnc(C(=O)N2CCC(c3noc(-c4cccnc4)n3)C2)cn1` (stereo not given): 628 s.
As to `Nc1c(CC(=O)O)cccc1C(=O)c1ccc(Br)cc1`, the RP-LC retention time came out at 909 s.
Consider `Cc1cccc(C(=O)N2CCC3(C2)C(=O)Nc2ccccc23)c1` (stereo not given), for which the RP-LC retention time is 734 s.
Consider `CC(C)n1c(N2CCN(C(=O)COc3ccc(Cl)cc3)CC2)cc(=O)n(C(C)C)c1=O`, for which the RP-LC retention time was determined as 928 s.
As for `CCSc1nc(O)cc(=O)[nH]1`, the RP-LC retention time came out at 628 s.
`Cc1ccc(-n2ccnc2SCc2nc(-c3ccc(Br)cc3)no2)cc1` gave an RP-LC retention time of 1090 s.
As for `C=CCOC(=O)/C=C\C(=O)NC(N)=O`, the RP-LC retention time amounted to 659 s.
Next, `COc1cccc(-c2noc(CN3C(=O)COc4cc(Cl)ccc43)n2)c1`: 1090 s; `Cc1oc(-c2ccn[nH]2)cc1S(=O)(=O)Nc1ccc(F)c(Cl)c1`: 852 s.
Next, `COc1cccc(C(=O)N2CCC(c3cc(N)on3)CC2)c1OC`: 639 s.
The value for `OC(CNCc1ccc(-c2ccc(Br)cc2)o1)c1ccccc1` (stereo not given) was 755 s.
Take `O=C(NCCOc1ccc(F)cc1)c1ccc(S(=O)(=O)N2CCCC2)cc1`: the RP-LC retention time came out at 813 s.
For `Cc1nnc(-c2ccc(S(=O)(=O)N3CCOCC3)o2)o1`, the RP-LC retention time is 664 s.
`Cc1cc(C)cc(NC(=O)N2CCC3(CC2)NC(=O)c2cc(F)ccc2N3C)c1` returned an RP-LC retention time of 769 s.
